Test results as given in PubChem BioAssay (NCI).
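Grown in 96-well plates, cells were treated for 48 hours with each compound at five concentrations. Insufficient inhibition: endpoint recorded as highest concentration tested. TGI denotes the concentration required for complete inhibition of growth.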

Tests used:
Assay in all cases: inhibition of tumour cell growth, NCI panel, 48 h
CCRF-CEM leukemia = system: CCRF-CEM leukemia
NCI-H23 lung = system: NCI-H23 lung
HCT-116 colon = system: HCT-116 colon
HS 578T breast = system: HS 578T breast
KM12 colon = system: KM12 colon
ACHN renal = system: ACHN renal
MOLT-4 leukemia = system: MOLT-4 leukemia
SN12C renal = system: SN12C renal
MDA-N = system: MDA-N
SW-620 colon = system: SW-620 colon
SF-268 CNS = system: SF-268 CNS
PC-3 prostate = system: PC-3 prostate
SNB-75 CNS = system: SNB-75 CNS
CAKI-1 renal = system: CAKI-1 renal
UACC-62 melanoma = system: UACC-62 melanoma
LOX IMVI melanoma = system: LOX IMVI melanoma
U251 CNS = system: U251 CNS
SNB-19 CNS = system: SNB-19 CNS
OVCAR-5 ovarian = system: OVCAR-5 ovarian
HL-60(TB) leukemia = system: HL-60(TB) leukemia
SK-MEL-28 melanoma = system: SK-MEL-28 melanoma
HT29 colon = system: HT29 colon
EKVX NSCLC = system: EKVX NSCLC
DU-145 prostate = system: DU-145 prostate
RPMI-8226 leukemia = system: RPMI-8226 leukemia
MDA-MB-435 = system: MDA-MB-435
MDA-MB-231 breast = system: MDA-MB-231 breast
NCI-H522 lung = system: NCI-H522 lung
K-562 leukemia = system: K-562 leukemia
UO-31 renal = system: UO-31 renal
HCC-2998 colon = system: HCC-2998 colon
MCF7 breast = system: MCF7 breast
NCI-H460 lung = system: NCI-H460 lung
SK-MEL-5 melanoma = system: SK-MEL-5 melanoma
SF-539 CNS = system: SF-539 CNS
TK-10 renal = system: TK-10 renal
NCI/ADR-RES ovarian = system: NCI/ADR-RES ovarian
HCT-15 colon = system: HCT-15 colon
A549 NSCLC = system: A549 NSCLC
RXF 393 renal = system: RXF 393 renal
OVCAR-8 ovarian = system: OVCAR-8 ovarian
MALME-3M melanoma = system: MALME-3M melanoma
SF-295 CNS = system: SF-295 CNS
786-0 renal = system: 786-0 renal
IGROV1 ovarian = system: IGROV1 ovarian
NCI-H226 lung = system: NCI-H226 lung
UACC-257 melanoma = system: UACC-257 melanoma
COLO 205 colon = system: COLO 205 colon
OVCAR-3 ovarian = system: OVCAR-3 ovarian
M14 melanoma = system: M14 melanoma
HOP-62 NSCLC = system: HOP-62 NSCLC
SR leukemia = system: SR leukemia
A498 renal = system: A498 renal
SK-MEL-2 melanoma = system: SK-MEL-2 melanoma
T-47D breast = system: T-47D breast
HOP-92 NSCLC = system: HOP-92 NSCLC
SK-OV-3 ovarian = system: SK-OV-3 ovarian

How did the TGI (CCRF-CEM leukemia) turn out when COc1cc2c(c(OC)c1OC)C(=O)[C@H](O)[C@H]2NC(N)=O was run?
The TGI was greater than 100 µM.

What about the TGI (NCI-H23 lung) of the same molecule?
The TGI was greater than 100 µM.

What about the TGI (HCT-116 colon) of the same molecule?
The TGI was greater than 100 µM.

And the TGI (HS 578T breast)?
Its TGI is greater than 100 µM.

What about the TGI (KM12 colon) of the same molecule?
The TGI was greater than 100 µM.

What about the TGI (ACHN renal) of the same molecule?
Its TGI is greater than 100 µM.

What about the TGI (MOLT-4 leukemia) of the same molecule?
Its TGI is greater than 100 µM.

What about the TGI (SN12C renal) of the same molecule?
Its TGI is greater than 100 µM.

What about the TGI (MDA-N) of the same molecule?
Its TGI is greater than 100 µM.

And the TGI (SW-620 colon)?
Its TGI is greater than 100 µM.

And the TGI (SF-268 CNS)?
The TGI was greater than 100 µM.

And the TGI (PC-3 prostate)?
The TGI was greater than 100 µM.

What about the TGI (SNB-75 CNS) of the same molecule?
Its TGI is greater than 100 µM.

And the TGI (CAKI-1 renal)?
The TGI was greater than 100 µM.

What about the TGI (UACC-62 melanoma) of the same molecule?
The TGI was 48.5 µM.

And the TGI (LOX IMVI melanoma)?
Its TGI is greater than 100 µM.

And the TGI (U251 CNS)?
The TGI was greater than 100 µM.

What about the TGI (SNB-19 CNS) of the same molecule?
Its TGI is greater than 100 µM.

And the TGI (OVCAR-5 ovarian)?
The TGI was greater than 100 µM.

What about the TGI (HL-60(TB) leukemia) of the same molecule?
The TGI was greater than 100 µM.

And the TGI (SK-MEL-28 melanoma)?
The TGI was greater than 100 µM.

What about the TGI (HT29 colon) of the same molecule?
The TGI was greater than 100 µM.

And the TGI (EKVX NSCLC)?
Its TGI is greater than 100 µM.

And the TGI (DU-145 prostate)?
Its TGI is greater than 100 µM.

And the TGI (RPMI-8226 leukemia)?
The TGI was greater than 100 µM.

And the TGI (MDA-MB-435)?
Its TGI is greater than 100 µM.

What about the TGI (MDA-MB-231 breast) of the same molecule?
Its TGI is greater than 100 µM.

And the TGI (NCI-H522 lung)?
The TGI was greater than 100 µM.

What about the TGI (K-562 leukemia) of the same molecule?
Its TGI is greater than 100 µM.

What about the TGI (UO-31 renal) of the same molecule?
The TGI was greater than 100 µM.

And the TGI (HCC-2998 colon)?
Its TGI is greater than 100 µM.

And the TGI (MCF7 breast)?
Its TGI is greater than 100 µM.

What about the TGI (NCI-H460 lung) of the same molecule?
Its TGI is greater than 100 µM.

What about the TGI (SK-MEL-5 melanoma) of the same molecule?
The TGI was greater than 100 µM.

And the TGI (SF-539 CNS)?
The TGI was greater than 100 µM.

What about the TGI (TK-10 renal) of the same molecule?
Its TGI is greater than 100 µM.

And the TGI (NCI/ADR-RES ovarian)?
The TGI was greater than 100 µM.

What about the TGI (HCT-15 colon) of the same molecule?
Its TGI is greater than 100 µM.

What about the TGI (A549 NSCLC) of the same molecule?
The TGI was greater than 100 µM.

And the TGI (RXF 393 renal)?
The TGI was greater than 100 µM.

What about the TGI (OVCAR-8 ovarian) of the same molecule?
Its TGI is greater than 100 µM.

What about the TGI (MALME-3M melanoma) of the same molecule?
Its TGI is greater than 100 µM.

And the TGI (SF-295 CNS)?
Its TGI is greater than 100 µM.

And the TGI (786-0 renal)?
Its TGI is greater than 100 µM.

And the TGI (IGROV1 ovarian)?
Its TGI is greater than 100 µM.

And the TGI (NCI-H226 lung)?
Its TGI is greater than 100 µM.

And the TGI (UACC-257 melanoma)?
Its TGI is greater than 100 µM.

And the TGI (COLO 205 colon)?
The TGI was greater than 100 µM.

And the TGI (OVCAR-3 ovarian)?
The TGI was greater than 100 µM.

What about the TGI (M14 melanoma) of the same molecule?
The TGI was greater than 100 µM.

What about the TGI (HOP-62 NSCLC) of the same molecule?
The TGI was greater than 100 µM.

With O=c1oc2ccccc2c2c(=O)c3ccc(OC/C(=N/O)c4ccc(Cl)cc4)cc3oc12 as the molecule, how does the TGI (CCRF-CEM leukemia) read?
Its TGI is 60.8 µM.

What about the TGI (NCI-H23 lung) of the same molecule?
The TGI was 45.1 µM.

What about the TGI (HCT-116 colon) of the same molecule?
Its TGI is 24 µM.

What about the TGI (HS 578T breast) of the same molecule?
Its TGI is 42.1 µM.

What about the TGI (KM12 colon) of the same molecule?
Its TGI is 14 µM.

And the TGI (SR leukemia)?
The TGI was 8.27 µM.

What about the TGI (ACHN renal) of the same molecule?
The TGI was 19.2 µM.

What about the TGI (MOLT-4 leukemia) of the same molecule?
Its TGI is 8.79 µM.

And the TGI (A498 renal)?
Its TGI is 15.6 µM.

And the TGI (SN12C renal)?
The TGI was 51.2 µM.

And the TGI (MDA-N)?
Its TGI is 10.9 µM.

What about the TGI (SW-620 colon) of the same molecule?
Its TGI is 37 µM.

And the TGI (SF-268 CNS)?
The TGI was 41.8 µM.

And the TGI (PC-3 prostate)?
The TGI was 24.5 µM.

What about the TGI (CAKI-1 renal) of the same molecule?
The TGI was 24 µM.

And the TGI (UACC-62 melanoma)?
Its TGI is 24.4 µM.

What about the TGI (SK-MEL-2 melanoma) of the same molecule?
The TGI was 24.1 µM.

And the TGI (LOX IMVI melanoma)?
The TGI was 31.9 µM.

And the TGI (U251 CNS)?
Its TGI is 23.3 µM.

And the TGI (SNB-19 CNS)?
Its TGI is 33.1 µM.

And the TGI (OVCAR-5 ovarian)?
Its TGI is 37 µM.

What about the TGI (HL-60(TB) leukemia) of the same molecule?
Its TGI is 28.4 µM.

And the TGI (DU-145 prostate)?
Its TGI is 36.1 µM.

What about the TGI (RPMI-8226 leukemia) of the same molecule?
The TGI was 33.1 µM.

And the TGI (MDA-MB-435)?
Its TGI is 7.89 µM.

And the TGI (MDA-MB-231 breast)?
Its TGI is 43.2 µM.

And the TGI (K-562 leukemia)?
Its TGI is 12.1 µM.

What about the TGI (UO-31 renal) of the same molecule?
The TGI was 30.8 µM.

And the TGI (MCF7 breast)?
The TGI was 49.6 µM.

What about the TGI (NCI-H460 lung) of the same molecule?
Its TGI is 33 µM.

And the TGI (SK-MEL-5 melanoma)?
Its TGI is 18.7 µM.

And the TGI (SF-539 CNS)?
The TGI was 23.8 µM.

What about the TGI (NCI/ADR-RES ovarian) of the same molecule?
The TGI was 31.4 µM.

What about the TGI (HCT-15 colon) of the same molecule?
Its TGI is 24.5 µM.

And the TGI (T-47D breast)?
The TGI was 88.4 µM.

And the TGI (A549 NSCLC)?
The TGI was 32 µM.

And the TGI (RXF 393 renal)?
Its TGI is 8.06 µM.

What about the TGI (OVCAR-8 ovarian) of the same molecule?
Its TGI is 65.1 µM.

And the TGI (HOP-92 NSCLC)?
The TGI was 25.1 µM.

And the TGI (SK-OV-3 ovarian)?
The TGI was 24.3 µM.

What about the TGI (SF-295 CNS) of the same molecule?
The TGI was 7.1 µM.

And the TGI (786-0 renal)?
Its TGI is 24.2 µM.

And the TGI (IGROV1 ovarian)?
The TGI was greater than 100 µM.

And the TGI (NCI-H226 lung)?
Its TGI is 36.2 µM.

And the TGI (UACC-257 melanoma)?
The TGI was greater than 100 µM.

What about the TGI (COLO 205 colon) of the same molecule?
Its TGI is 29.1 µM.

And the TGI (OVCAR-3 ovarian)?
The TGI was 10.9 µM.

And the TGI (M14 melanoma)?
The TGI was 34 µM.

And the TGI (HOP-62 NSCLC)?
The TGI was 31.5 µM.
